Biological target: T1, adult-type mouse AChR (α1-GFP, β, δ, ε), whole-cell (Mus musculus, UniProt P02716+P04756+P20782)
T1 construct: gene Chrna1; alpha1 with GFP encoded between M3 and M4; transient expression in HEK293, GFP-sorted cells; pentamer; no background mutations; with Acetylcholine receptor subunit beta
Experiment: automated whole-cell patch clamp (IonFlux […]), concentration-response
Type: cell-based

T1 sequence (P20782 21-493): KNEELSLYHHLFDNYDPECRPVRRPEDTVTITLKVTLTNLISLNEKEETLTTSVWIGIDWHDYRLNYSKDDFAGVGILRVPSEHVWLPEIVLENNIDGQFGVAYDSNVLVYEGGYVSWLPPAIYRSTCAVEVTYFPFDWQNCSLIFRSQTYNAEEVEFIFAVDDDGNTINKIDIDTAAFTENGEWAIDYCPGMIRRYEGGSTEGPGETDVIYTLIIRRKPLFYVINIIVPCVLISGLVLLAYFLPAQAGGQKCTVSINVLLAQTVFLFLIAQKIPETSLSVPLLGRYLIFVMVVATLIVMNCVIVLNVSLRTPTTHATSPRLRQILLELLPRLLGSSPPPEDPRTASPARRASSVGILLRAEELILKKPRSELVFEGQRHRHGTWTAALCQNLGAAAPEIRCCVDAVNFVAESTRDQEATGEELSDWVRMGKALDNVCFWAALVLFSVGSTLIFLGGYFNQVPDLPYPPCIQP
T1 sequence (P02716 25-520): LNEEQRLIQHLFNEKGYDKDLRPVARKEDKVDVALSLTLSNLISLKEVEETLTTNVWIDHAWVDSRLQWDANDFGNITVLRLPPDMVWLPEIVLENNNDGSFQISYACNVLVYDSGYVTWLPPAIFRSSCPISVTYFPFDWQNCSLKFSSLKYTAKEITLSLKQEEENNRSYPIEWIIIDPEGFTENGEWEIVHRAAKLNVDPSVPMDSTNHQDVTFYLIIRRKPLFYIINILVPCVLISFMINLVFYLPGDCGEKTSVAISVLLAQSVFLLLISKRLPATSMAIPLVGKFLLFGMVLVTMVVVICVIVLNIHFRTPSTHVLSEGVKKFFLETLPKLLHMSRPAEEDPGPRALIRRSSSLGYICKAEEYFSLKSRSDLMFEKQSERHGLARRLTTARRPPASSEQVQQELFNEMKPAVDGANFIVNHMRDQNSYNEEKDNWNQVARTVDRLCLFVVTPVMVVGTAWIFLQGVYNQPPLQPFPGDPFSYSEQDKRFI
T1 sequence (P09690 24-501, further chain): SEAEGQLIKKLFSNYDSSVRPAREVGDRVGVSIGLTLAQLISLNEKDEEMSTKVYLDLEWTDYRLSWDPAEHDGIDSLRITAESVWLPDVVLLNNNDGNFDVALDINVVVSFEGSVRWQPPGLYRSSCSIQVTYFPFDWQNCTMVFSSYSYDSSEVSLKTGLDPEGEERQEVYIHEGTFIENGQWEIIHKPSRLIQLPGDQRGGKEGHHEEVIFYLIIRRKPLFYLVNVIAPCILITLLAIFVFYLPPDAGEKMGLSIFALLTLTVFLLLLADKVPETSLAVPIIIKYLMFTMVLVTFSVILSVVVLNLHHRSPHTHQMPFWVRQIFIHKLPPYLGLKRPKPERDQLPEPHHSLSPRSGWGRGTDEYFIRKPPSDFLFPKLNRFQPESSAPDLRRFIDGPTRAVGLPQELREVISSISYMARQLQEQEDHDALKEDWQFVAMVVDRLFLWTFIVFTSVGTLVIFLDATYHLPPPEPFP
T1 sequence (P04756 21-457): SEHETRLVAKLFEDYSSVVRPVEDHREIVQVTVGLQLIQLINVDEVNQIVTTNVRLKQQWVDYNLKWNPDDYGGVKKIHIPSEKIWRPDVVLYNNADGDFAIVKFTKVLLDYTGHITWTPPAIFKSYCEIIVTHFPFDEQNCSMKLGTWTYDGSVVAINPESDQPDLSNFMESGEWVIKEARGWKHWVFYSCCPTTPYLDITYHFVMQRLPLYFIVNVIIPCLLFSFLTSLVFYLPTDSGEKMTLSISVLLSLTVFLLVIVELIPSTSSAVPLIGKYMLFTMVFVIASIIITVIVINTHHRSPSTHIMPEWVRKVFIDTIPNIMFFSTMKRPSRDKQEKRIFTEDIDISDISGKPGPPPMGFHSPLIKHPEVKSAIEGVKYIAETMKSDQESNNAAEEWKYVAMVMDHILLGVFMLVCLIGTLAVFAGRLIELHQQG

SMILES: C[N+](C)(C)C [TMA]
- EC50: 843 ± 110 µM

SMILES: C[N+](C)(C)CCOC(N)=O [CCh]
- EC50: 72.2 ± 11 µM

— publication doi:10.1101/2020.10.13.337410v3, “Agonist efficiency from concentration-response curves: structural implications and applications” (biorxiv, 2021)
